These results are taken from patent US20220330547A1, “INSECT REPELLENT” (Rilis Co., Ltd., priority 2019, published 2022).

“And” between values parts separate entries of the source, which are not always exact repeats. Identical values can stand only once. Like-named read-outs stand apart in the source and are kept apart here.

A short description of data set [1]: oxidative modification of sample on filter paper, 40° C. for a week, measured by chromatography. In kind it is physicochemical. The following applies: for Variation (Oxidation) (%): decrease of area after 1 week at 40° C.; for Day of experiment (area): filter paper 1 g/m^2, measured on the day; for After 1 week (area): filter paper 1 g/m^2, sealed flask, 40° C., 150 rpm, a week.

Data set [2] deals with ticks. Briefly: tick repellency test (petri dish) with filter paper heated at 150° C. In kind it is in vivo. The following applies: 24 hours. The method, then: Subsequently, a relationship between the tick repellent effect resulting from a difference in oxidative modification rate and time was examined. In the test, mixed farnesyl acetone isomers, trans-farnesyl acetone, 2,4-DHAP and xanthoxyline were each dissolved to 1 g/m^2 in acetone, and each filter paper added thereto was heated at 150° C. only for 3 minutes, 5 minutes or 26 minutes. The filter paper not heated (hereinafter referred to as 150° C., 0 min) was also prepared.
Each filter paper was placed on the center of a petri dish with a diameter of 4 cm, and 0.05 g of an attractant sample was placed on the center of filter paper. The petri dish was placed on the center of another petri dish with a diameter of 9 cm, and about 10000 ticks were provided together with a medium to this another petri dish, which was left to stand for 24 hours. After that, ticks in the 4 cm petri dish were counted.
For the repellency rate, the proportion of the number of ticks which had not been attracted was calculated by the following formula using the number of ticks entering the petri dish on which only the attractant sample was placed, x (control), and contrarily the number of ticks entering the petri dish on which mixed farnesyl acetone isomers, trans-farnesyl acetone, 2,4-DHAP or xanthoxyline was placed, n.
Repellency rate={(x−n)/x} x 100 (%)
* a small number of entering ticks =high repellency rate
It should be noted that the heating time at 150° C. is not described in detail herein, but was converted by the following Arrhenius equation described in “Sumie Yoshioka, Stability of drugs and dosage forms, p. 142, 1995, Nankodo Co., Ltd.” as in Drug testing on Stability studies.
Arrhenius equation: k =A exp (-E/RT)
* Activation energy of stability studies E=22.1 kcal/mol.

In data set [3] the test system is ticks. The following applies: 1 g/m^2, after 24 hours; for Mortality rate after correction (%): corrected by mortality rate without treatment. The method, then: Incidentally, a tick killing experiment was performed by a filter paper contact method to examine whether or not the insecticidal effect is contained in the repellent effect of 2,4-DHAP and xanthoxyline. In the experiment, ticks attracted to the untreated site in the repellent test by the petri-dish method were obtained on a filter paper by the sodium chloride floatation method, and living ticks were gently taken with a fine brush (one stroke). A 5 cm x 10 cm filter paper permeated with 1 g/m^2 of a sample was dried in air and shaped into a bag form. The taken ticks were put therein, and the opening thereof was closed with clips. After 24 hours, living ticks and dead ticks were measured.
In the tick killing test, 2,4-DHAP, xanthoxyline and DEET were compared. DEET is a compound used as a repellent for e.g. insects (anti-insect agent), and is also called N,N-diethyl-3-methylbenzamide or N,N-diethyl-m-toluamide.
In Table 3, the mortality rates (%) of 2,4-DHAP, xanthoxyline and DEET are values corrected by the mortality rate without treatment based on the mortality rate without treatment.

The conditions of data set [4]: 25° C.; cited from earlier work.
The test system of data set [5] is ticks. Briefly: repellent effect of farnesyl acetone in an environment of 150° C. (background statement). In kind it is in vivo. The method, then:
For example, if there is a heat treatment step in the step of the anti-tick treatment, because oxidation reactivity due to heat is high, the repellent effect is already reduced to 30% or less after about 3 minutes in an environment of 150° C., and the repellent effect is reduced to 0% by at most 60 minutes. That is to say, it is troublesome to subject living materials of interest to the anti-tick treatment.

The test system of data set [6] is ticks. To be noted: maintained over 14 days; cited from earlier work.
Setting [7] is: 1 g/m^2, 150° C. 0 min (not heated).
The mark [8] stands for this setting: 1 g/m^2, 150° C. 3 min (corresponding to 25° C., about 4 months).
The mark [9] stands for this setting: 1 g/m^2, 150° C. 5 min (corresponding to 25° C., about 7 months).
The mark [10] stands for this setting: 1 g/m^2, 150° C. 26 min (corresponding to 25° C., about 3 years).

As to `CC(=O)CCC=C(C)CCC=C(C)CCC=C(C)C` (mixture of isomers) [Mixed farnesyl acetone isomers, farnesyl acetone], the “Variation (Oxidation) (%)” value in data set [1] and in data set [1] (listed as mixed farnesyl acetone isomers) was 67.10% each time. In data set [1], the “Day of experiment (area)” value amounted to 3145831 area. Further, the “After 1 week (area)” value in data set [1] was found to be 1038335 area. Besides, the Repellency rate turned out to be 90.60% in the data set on ticks [2] (setting [7]); 94.90% in the data set on ticks [2] (setting [8]); 24.60% in the data set on ticks [2] (setting [9]); 30% in the data set on ticks [2] (1 g/m^2, 150° C. 5 min (corresponding to 25° C., about 7 months), listed as mixed farnesyl acetone isomers); 17.60% in the data set on ticks [2] (setting [10]); 17.6% in the data set with ticks [2] (1 g/m^2, 150° C. 26 min (corresponding to 25° C., about 3 years), listed as mixed farnesyl acetone isomers).

For `CC(=O)c1ccc(O)cc1O` [2,4-DHAP, 2′,4′-dihydroxyacetophenone], in data set [1], the “Variation (Oxidation) (%)” value is 7.4% and 7.46%; the “Day of experiment (area)” value was found to be 12027833 area; the “After 1 week (area)” value is recorded as 11130386 area. Moreover, the Repellency rate in the data set with ticks [2] (setting [7]) came to 39.80%. For the same compound, in the data set with ticks [2] (setting [8]), the Repellency rate is 37.40%. Moreover, in the data set on ticks [3] (Average), the Dead ticks came out at 4, the Living ticks worked out at 106 and the “Mortality rate (%)” value is on record as 3.4%. Moreover, in the data set on ticks [3] (single run), the Living ticks is 81 and 131; the “Mortality rate (%)” value is 2.4% and 4.4%; the “Mortality rate after correction (%)” value amounted to 0.0%. In data set [4], the transpiration properties is listed as 6×10^-5 mmHg.

`CCN(CC)C(=O)c1cccc(C)c1` [DEET, N,N-diethyl-3-methylbenzamide, reference compound]: in the data set with ticks [3] (Average), the Dead ticks came out at 62, the Living ticks was found to be 2, the “Mortality rate (%)” value was 96.2% and the “Mortality rate after correction (%)” value stood at 95.8%. Further, in the data set on ticks [3] (single run), the “Mortality rate (%)” value was 100.0% and 92.3%; the “Mortality rate after correction (%)” value is 100.0% and 91.5%.

For `COc1cc(O)c(C(C)=O)c(OC)c1` [Xanthoxyline], the “Variation (Oxidation) (%)” value in data set [1] and in data set [1] (listed as xanthoxyline) was 2.42% in each case. In addition, the “Day of experiment (area)” value in data set [1] was found to be 5756751 area. Also, in data set [1], the “After 1 week (area)” value worked out at 5617299 area. The Repellency rate was 92.40% in the data set with ticks [2] (setting [7]); 97.40% in the data set on ticks [2] (setting [8]); not below 90% in the data set on ticks [2] (1 g/m^2, 150° C. 3 min (corresponding to 25° C., about 4 months), listed as xanthoxyline); 95.80% with ticks [2] (setting [9]); not below 90% in the data set on ticks [2] (1 g/m^2, 150° C. 5 min (corresponding to 25° C., about 7 months), listed as xanthoxyline); 93.00% in the data set on ticks [2] (setting [10]). For the same compound, the Dead ticks in the data set with ticks [3] (Average) was 24; with ticks [3] (single run) it was 26 and 22. Moreover, the Living ticks in the data set on ticks [3] (Average) is 75; with ticks [3] (single run), 90 and 59. The transpiration properties in data set [4] is 1.5×10^-5 mmHg.

For the compound `CC(=O)CCC=C(C)CCC=C(C)CCC=C(C)C` [farnesyl acetone], the repellent effect in the data set with ticks [5] (after about 3 minutes at 150° C.) was not above 30%; in the data set on ticks [5] (by at most 60 minutes at 150° C.) it was 0%; with ticks [6] it was not below 95%.

As to `CC(=O)CC/C=C(\C)CC/C=C(\C)CCC=C(C)C` [trans-Farnesyl acetone], the “Variation (Oxidation) (%)” value in data set [1] and in data set [1] (listed as trans-farnesyl acetone) was 19.29% in each case. Besides, in data set [1], the “Day of experiment (area)” value was 4022168 area. Also, the “After 1 week (area)” value in data set [1] was determined as 3246218 area. The Repellency rate was 94.30% in the data set with ticks [2] (setting [7]); 90.50% with ticks [2] (setting [8]); 65.70% in the data set with ticks [2] (setting [9]); “below 65%” in the data set on ticks [2] (1 g/m^2, 150° C. 5 min (corresponding to 25° C., about 7 months), listed as trans-farnesyl acetone); 0.00% in the data set with ticks [2] (setting [10]).
